These are literature values, as cited in patent publication US5922683A, “Multicyclic erythromycin derivatives” (Abbott Laboratories, priority 1998, dated 1999).

This data set concerns Gram-negative bacteria. The following applies: cited from earlier work.

Regarding `CC[C@H]1OC(=O)[C@H](C)[C@@H](O[C@H]2C[C@@](C)(OC)[C@@H](O)[C@H](C)O2)[C@H](C)[C@@H](O[C@@H]2O[C@H](C)C[C@H](N(C)C)[C@H]2O)[C@](C)(O)C[C@@H](C)C(=O)[C@H](C)[C@@H](O)[C@]1(C)O` [Ery A, Erythromycin A], the “activity against Gram-negative bacteria” value is recorded as “only weak activity”.
